Patent US8288409B2, “Quinolizidinone M1 receptor positive allosteric modulators” (Merck Sharp & Dohme Corp., priority 2008, dated 2012)
Like-named read-outs stand apart in the source and are kept apart here.

Target: T1, acetylcholine muscarinic M1 receptor (Homo sapiens, UniProt P11229)
T1 construct: expressed in transfected cells; host or cells: CHOnfat cells (CHO; also called CHOK1/hM1)
T1 sequence (P11229 1-460): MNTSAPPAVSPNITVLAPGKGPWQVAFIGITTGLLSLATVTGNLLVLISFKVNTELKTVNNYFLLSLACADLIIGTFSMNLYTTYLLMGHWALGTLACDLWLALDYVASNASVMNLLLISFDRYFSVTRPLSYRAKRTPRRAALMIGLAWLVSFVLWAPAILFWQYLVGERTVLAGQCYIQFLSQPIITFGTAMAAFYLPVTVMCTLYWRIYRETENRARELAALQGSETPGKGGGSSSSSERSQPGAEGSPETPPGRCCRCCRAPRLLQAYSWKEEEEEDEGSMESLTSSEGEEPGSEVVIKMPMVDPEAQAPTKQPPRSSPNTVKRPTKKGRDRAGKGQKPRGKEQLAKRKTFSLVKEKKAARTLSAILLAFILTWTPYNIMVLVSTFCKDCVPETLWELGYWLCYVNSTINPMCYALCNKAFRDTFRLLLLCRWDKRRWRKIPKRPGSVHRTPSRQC
Experiment: FLIPR intracellular calcium assay for M1 receptor positive allosteric modulator activity
Assay type: cell-based
Procedure: The assay studies the effect of one or several concentrations of test compounds on basal or acetylcholine-stimulated Ca^2+ levels using FLIPR.
Compounds are prepared and subjected to a preincubation period of 4 min. Thereafter, a single EC20 concentration of acetylcholine is added to each well (3 nM final). The intracellular Ca^2+ level of each sample is measured and compared to an acetylcholine control to determine any modulatory activity.
Cells: CHOnfat/hM1, hM2, hM3 or hM4 cells are plated 24 hr before the assay at a density of 18,000 cells/well (100 μl) in a 384 well plate. CHOnfat/hM1 and CHOnfat/hM3 Growth Medium: 90% DMEM (Hi Glucose); 10% HI FBS; 2 mM L-glutamine; 0.1 mM NEAA; Pen-Strep; and 1 mg/ml Geneticin, are added. For M2Gqi5CHOnfat and M4Gqi5CHOnfat cells, an additional 600 μg/ml hygromycin is added.
Buffers. […] Dye Loading Buffer: Assay Buffer plus 1% Fetal Bovine Serum and Fluo-4AM/Pluronic Acid Mixture. […] 20% Pluronic Acid Solution stock, with a concentration of 0.04% in Buffer, 0.02% in Assay.
65 μL of 2 mM Fluo-4AM are mixed with 130 of 20% Pluronic Acid. The resulting solution and 650 μL FBS is added to the assay buffer for a total volume of 65 mL. Positive Controls: 4-Br-A23187: 10 mM in DMSO; final concentration 10 μM. Acetylcholine: 10 mM in water, working stock at both 20 μM and 30 μM in assay buffer, final concentration of 10 μM. This is used to check the maximum stimulation of the CHOK1/hM1 cells. 20 μM (2×) acetylcholine is added in the preincubation part of the assay, and the 30 μM (3×) stock is added in the second part. (EC20)Acetylcholine: 10 mM in water, working stock of 9 nM (3×), and final concentration in assay is 3 nM. This is used after the preincubation with test compounds. Addition of the EC20 Acetylcholine to each well with a test compound will ascertain any modulator activity. 24 wells contain 3 nM Acetylcholine alone as a control.
Determining Activity of Putative Compounds:
Four 96-well plates are combined into a 384-well plate using Mosquito Nanolitre Pipetting System by transferring 1 μl of serial diluted compounds to each well, and 1 mM acetylcholine (100× stock concentration) were added as a control. Using Temo, 49 μl assay buffer is added to each well of the 384-well plate right before assay.
In a 96-well Whatman 2 ml Uniplate, 9 nM Acetylcholine (3×) is pipetted into wells corresponding to the screening compounds and into control wells. The 30 μM acetylcholine control (3×) is added into control wells and the 3× agonist plate is transferred into a 384-well plate.
Cells are washed three times with 100 μL of buffer, leaving 30 μL of buffer in each well. Using Multimek, 30 μL of Dye Loading Buffer is added into each well and incubated at 37° C., 5% CO2 for up to one hr.
After 60 min, the cells are washed three times with 100 μL of buffer, leaving 30 μL of buffer in each well. The cell plate, screening plate, and agonist addition plates are placed on the platform in the FLIPR and the door is closed. A signal test to check background fluorescence and basal fluorescence signal is performed. Laser intensity is adjusted if necessary.
4 min of preincubation with the test compounds is provided to determine any agonist activity on the M1 receptor by comparison to the 1 mM acetylcholine control. After preincubation, the EC20 value of acetylcholine (3 nM final) is added to determine any modulator activity.

[1] = CHOnfat/hM1 cells, 4 min preincubation, then EC20 acetylcholine (3 nM final), intracellular Ca2+ by FLIPR384, read-out: IP Value (inflection point)

Compound | EC50 [1] | EC50
O=C(O)c1cc(CN2CCCCC2c2ccncc2)c2ccccn2c1=O (stereo not drawn) [Example 6] | 2240 nM | –
O=C(O)c1cc(CN2CCC(c3nc4ccccc4[nH]3)CC2)c2ccccn2c1=O [Example 85] | 122 nM | –
O=C(O)c1cc(CN2CCCC(O)C2)c2ccccn2c1=O (stereo not drawn) [Example 24] | 8700 nM | –
Cn1c(C2CCN(Cc3cc(C(=O)O)c(=O)n4ccccc34)CC2)nc2ccccc21 [Example 91, 1-{[4-(1-methyl-1H-benzimidazol-2-yl)piperidin-1-yl]methyl}-4-oxo-4H-quinolizine-3-carboxylic Acid] | 30500 nM | –
O=C(O)c1cc(CN2CCC(c3ccccc3)CC2)c2ccccn2c1=O [Example 25] | – | 1340 nM
O=C(O)c1cc(CN2CCC(c3ccc(C(F)(F)F)cc3)CC2)c2ccccn2c1=O [Example 1, 4-oxo-1-({4-[4-(trifluoromethyl)phenyl]piperidin-1-yl}methyl)-4H-quinolizine-3-carboxylic Acid] | 548 nM | –
O=C(O)c1cc(CN2CCCCC2c2nc3cc(F)ccc3[nH]2)c2ccccn2c1=O (stereo not drawn) [Example 14] | 508 nM | –
O=C(O)c1cc(CN2CCC(c3c[nH]c4ccc(O)cc34)CC2)c2ccccn2c1=O [Example 83] | 277 nM | –
O=C(O)c1cc(CN2CCC(c3nc4cc(F)ccc4[nH]3)CC2)c2ccccn2c1=O [Example 86] | 42 nM | –
